Reference: patent US6706704B2 (priority 2001, dated 2004)

Legend:
[1] = tested on: CO2 responsiveness of phrenic nerve activity; parameters: species or system cat; settings: in vivo
[2] = tested on: bulbospinal Aug-I neurons of the VRG; assay: Iontophoresis of DAMGO and opioid receptor blockers on bulbospinal inspiratory (Aug-I) neurons, extracellular recording; type: in vivo, cat; settings: for effect of opioid receptor blocker on DAMGO-mediated depression: naloxonazine 50-90 nA (15 neurons), naltrindole 50-100 nA (10 neurons)
[3] = tested on: D1-dopamine receptors (phrenic nerve activity); parameters: species or system cat; settings: in vivo

Structure (SMILES): Br.C=CCN1CCc2c(cc(O)c(O)c2Cl)C(c2ccccc2)C1 (racemic) [(±)-chloro-APB, (+/−)6-chloro-7,8-dihydroxy-3-allyl-1-phenyl-2,3,4,5-tetrahydro-1H-3-benzazepine hydrobromide]
- sensitivity of PN activity to CO2 [1]: did not significantly alter the sensitivity of PN activity to CO2

Structure (SMILES): C[C@@H](NC(=O)[C@@H](N)Cc1ccc(O)cc1)C(=O)NCC(=O)N(C)[C@@H](Cc1ccccc1)C(=O)NCCO [DAMGO, D-Ala^2,N-Me-Phe^4,Gly-ol^5-Enkephalin]
- DAMGO-mediated depression ([2]; DAMGO without blocker): 50-85%
- time to restoration of control activity during recovery ([2]; after DAMGO iontophoresis): 60 to 90 s
- action potential frequency ([2]; iontophoresis 1-3 minutes, 50-90 nA ejecting currents): 50-85 % of control
- effect on discharges of Aug-I neurons ([2]; iontophoresis, 25 neurons, pentobarbital-anesthetized cats): depressed discharges of all Aug-I neurons

Structure (SMILES): C=CCN1CC[C@]23c4c5ccc(O)c4O[C@H]2/C(=N/N=C2\CC[C@@]4(O)[C@H]6Cc7ccc(O)c8c7[C@@]4(CCN6CC=C)[C@H]2O8)CC[C@@]3(O)[C@H]1C5 [Naloxonazine]
- DAMGO-mediated depression ([2]; in the presence of Naloxonazine (50-90 nA)): 20-35%
- effect of opioid receptor blocker on DAMGO-mediated depression ([2]; iontophoresis): blocked DAMGO-mediated depression in all neurons tested

Structure (SMILES): Oc1ccc2c3c1O[C@H]1c4[nH]c5ccccc5c4C[C@@]4(O)[C@@H](C2)N(CC2CC2)CC[C@]314 [Naltrindole]
- effect of opioid receptor blocker on DAMGO-mediated depression ([2]; iontophoresis): without effect on all neurons tested

Structure (SMILES): CN1CCc2cc(Cl)c(O)cc2[C@@H](c2ccccc2)C1 [R(+)-SCH-23390, (R)(+)-7-chloro-8-hydroxy-3-methyl-1-phenyl-2,3,4,5-tetrahydro-1H-3-benzazepine]
- effect of D1 antagonist on D1 agonist effects [3]: blocked D1 agonist effects
